These results are taken from US4788193A, “1-aryloxy-3-(substituted alkylamino)-2-propanols, pharmaceutical compositions and use” (Merck & Co., Inc., priority 1987, dated 1988).

What all share (assay type): cell-based
The target of test [1] is T1, β1-receptor (Cavia porcellus, UniProt H0W3H1).
T1 construct: isolated guinea pig atrial preparations; from tissue; host or cells: isolated guinea pig atria
The test can be described thus: inhibition of the positive chronotropic actions of isoproterenol in isolated guinea pig atrial preparations (β1). Particulars: isolated guinea pig atria, isoproterenol chronotropic action; read-out: pA2 values β1 (atria) (converted). On the procedure:
(§1) The in vitro β-adrenergic blocking properties of the novel compounds of this invention were evaluated in accordance with standard procedures. The interaction with the β1 -receptor was determined via inhibition of the positive chronotropic actions of isoproterenol in isolated guinea pig atrial preparations. β2 potency was determined by using isolated guinea pig tracheal chains contracted with PGF2@ and by measuring inhibition of isoproterenol-induced relaxation.

The target of another test is T2, β2 (trachea) (Cavia porcellus, UniProt Q8K4Z4).
T2 construct: isolated guinea pig tracheal chains; from tissue; host or cells: isolated guinea pig tracheal chains
T2 sequence (Q8K4Z4 whole entry): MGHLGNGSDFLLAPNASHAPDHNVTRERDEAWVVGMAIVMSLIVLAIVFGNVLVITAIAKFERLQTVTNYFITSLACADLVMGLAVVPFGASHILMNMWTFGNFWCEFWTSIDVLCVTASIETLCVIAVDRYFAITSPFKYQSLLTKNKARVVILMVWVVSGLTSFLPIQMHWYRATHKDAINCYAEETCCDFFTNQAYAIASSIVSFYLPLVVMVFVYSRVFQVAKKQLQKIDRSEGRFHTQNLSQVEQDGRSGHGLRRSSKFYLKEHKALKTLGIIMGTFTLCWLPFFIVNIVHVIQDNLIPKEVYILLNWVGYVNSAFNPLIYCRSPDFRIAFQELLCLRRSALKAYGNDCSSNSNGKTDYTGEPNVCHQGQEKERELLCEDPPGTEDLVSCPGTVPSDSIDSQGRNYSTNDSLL
Nature of the test: inhibition of isoproterenol-induced relaxation in isolated guinea pig tracheal chains contracted with PGF2α (β2). Particulars: read-out: pA2 values β2 (trachea) (converted). Here is the method: as §1

Test [2] relates to β1-receptor. The test can be described thus: inhibition of the positive chronotropic actions of isoproterenol in isolated guinea pig atrial preparations (β1). Particulars: β1 (atria) versus β2 (trachea), from pA2 values. Here is the method:
as §1

T1 sequence (H0W3H1 1-470): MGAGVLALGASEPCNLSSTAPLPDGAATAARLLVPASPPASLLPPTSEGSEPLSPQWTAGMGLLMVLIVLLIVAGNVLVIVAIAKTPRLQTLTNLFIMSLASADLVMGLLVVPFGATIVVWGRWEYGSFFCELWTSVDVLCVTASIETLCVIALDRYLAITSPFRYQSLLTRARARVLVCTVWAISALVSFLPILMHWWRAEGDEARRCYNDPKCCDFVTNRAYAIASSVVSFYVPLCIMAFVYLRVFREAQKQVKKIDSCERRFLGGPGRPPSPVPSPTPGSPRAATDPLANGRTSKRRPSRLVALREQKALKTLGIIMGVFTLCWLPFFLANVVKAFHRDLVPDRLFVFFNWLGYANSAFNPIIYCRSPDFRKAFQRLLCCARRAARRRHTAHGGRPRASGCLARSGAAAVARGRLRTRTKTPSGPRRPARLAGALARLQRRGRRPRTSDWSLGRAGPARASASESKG

Regarding `CN(C)CCNCC(O)COc1ccccc1C#N` (centres unmarked) [N(CH3)2, 1-(2-cyanophenoxy)-3-[2-(dimethylamino)ethyl]-amino-2-propanol], the Kb at β1-receptor [1] is 43.7 nM; on β2 (trachea), 1120 nM.

In the case of `N#Cc1ccccc1OCC(O)CNCCc1ccncc1` (centres unmarked), the results for the Kb at β1-receptor [1] and on β2 (trachea) were 74.1 nM and 302 nM, respectively. Also, the Cardioselectivity ratio with β1-receptor [2] was 4.1.

In the case of `N#Cc1ccccc1OCC(O)CNCCN1CCNCC1` (centres unmarked), the Kb at β1-receptor [1] is 25.7 nM; on β2 (trachea), 64.6 nM. Besides, the Cardioselectivity ratio in the test on β1-receptor [2] turned out to be 2.5.

As to `N#Cc1ccccc1OCC(O)CNCCN1CCOCC1` (centres unmarked), the Kb at β1-receptor [1] is 15.5 nM; on β2 (trachea), 89.1 nM. Moreover, the Cardioselectivity ratio in the test on β1-receptor [2] was 5.8.

With `N#Cc1ccccc1OCC(O)CNCCc1cccnc1` (centres unmarked), the Kb on β1-receptor [1] was 23.4 nM; on β2 (trachea) it was 138 nM. In addition, in the test with β1-receptor [2], the Cardioselectivity ratio was found to be 5.9.

In the case of `N#Cc1ccccc1OCC(O)CNCCc1ccccn1` (centres unmarked), the Kb on β1-receptor [1] is 34.7 nM; on β2 (trachea), 34700 nM. Also, the Cardioselectivity ratio with β1-receptor [2] is 1000.
